Where “and” joins values, the source holds several entries; their conditions need not be identical. Equal values may be shown once. Read-outs that look alike come from different tables or passages of the source.
How the values were obtained:
Type in all cases: cell-based
[1] = molecular target: T1, α3β3γ2 GABAA receptors (Rattus norvegicus, UniProt P20236+P63079); assay: Two electrode voltage clamp in Xenopus laevis oocytes, α3β3γ2
T1 construct: expressed in transfected cells; host or cells: Xenopus laevis oocytes, mRNA injected
Source text: (§1) cDNA’s of rat GABAA receptor subunits α1, α4, β1, β2, β3 and γ2S were cloned as described. cDNAs of the rat subunits α2, α3 and α5 were gifts from P. Malherbe, that of α6 and γ1 were gifts of P. Seeburg and that of δ was a gift of C. Czajkowski. The mutants were constructed using the Q5 Site-Directed Mutagenesis Kit (New England Biolabs) following manufacturer’s instruction. We used the wild-type rat β3-pCI vector as template and the primers […] and […] resulting in a substitution of amino acid N41 (AAC) to R (AGG). We used the wild-type rat β1-pCI vector as template and the primers […] and […] resulting in a substitution of amino acid R41 (CGG) to N (AAC). The mutated subunits were confirmed by sequencing.
(§2) In vitro transcription of mRNA was based on the cDNA expression vectors encoding for rat GABAA receptor subunits α1–6, β1-3, γ1,2, δ and the two β mutants (β1R41N and β3N41R)[40]. After linearizing the cDNA vectors with appropriate restriction endonucleases, the cDNA was purified and concentrated with the DNA Clean and Contentrator ^TM Kit (Zymoresearch, Catalog No. D4005). Capped transcripts of the purified cDNA were produced using the mMESSAGE mMACHINE® T7 transcription kit (Ambion, TX, USA) and polyadenylated using the Ambion PolyA tailing kit (Ambion). After transcription and polyadenylation the RNA was purified with the MEGAclear ^TM Kit (Ambion, Catalog No. AM1908). The final RNA concentration was measured on NanoDrop® ND-1000 and finally diluted and stored in diethylpyrocarbonate-treated water at −80 °C. For the microinjection, the RNA of αβ receptor combinations was mixed at 1:1 ratio (which leads to αβ receptors that consist of predominantly 3 beta and 2 alpha subunits[27]), for αkβlγm (k = 1–3, l = 1, 3, m = 1, 2) receptors at 1:1:5 ratio, for αkβ3γ2 (k = 4–6) and αkβlδ (k = 1, 4 and 6, l = 1, 3) receptor combinations at 3:1:5 ratio.
(§3) Mature female Xenopus laevis (Nasco, WI) were anesthetized in a bath of ice-cold 0.17% Tricain (Ethyl-m-aminobenzoate, Sigma, MO) before decapitation in full accordance with all rules of the Austrian animal protection law (see http://www.ris.bka.gv.at/Dokumente/BgblAuth/BGBLA_2012_I_114/BGBLA_2012_I_114.pdf) and the Austrian animal experiment by-laws (see https://www.ris.bka.gv.at/Dokumente/BgblAuth/BGBLA_2012_II_522/BGBLA_2012_II_522.pdf) which implement the European Directive 2010/63/EU (see http://eur-lex.europa.eu/LexUriServ/LexUriServ.do?uri=OJ:L:2010:276:0033:0079:en:PDF) into the Austrian law (all information accessed on July 27, 2016). The frog’s ovaries were transferred to ND96 medium (96 mM NaCl, 2 mM KCl, 1 mM MgCl2, 5 mM HEPES; pH 7.5). Stage 5–6 oocytes with the follicle cell layer around them were roughly dissected with forceps into packages of 10–15 cells and washed in Ca^2+-free ND96 medium. Cells were then digested with collagenase (type IA, Sigma, NO, 1 mg/mL ND96) at 18 °C shaking at 30 rpm for 30–60 minutes and gently defolliculated with the aid of a glass pipette with appropriate tip diameter and a platinum loop. Defolliculated cells were stored at 18 °C for at least 6 hours in ND96 solution containing penicillin G (10000 IU/100 mL) and streptomycin (10 mg/100 mL) in order to preselect and exclude damaged cells from further treatment. Healthy defolliculated oocytes were injected with an aqueous solution of mRNA. A total of 4.5 ng of mRNA per oocyte was injected with a Nanoject II (Drummond). After injection of mRNA, oocytes were incubated at 18 °C (ND96 + antibiotic) for 2–3 days for αβ receptors and for 3–4 days for αβγ or αβδ receptors before recording. When cells were measured at later time points, oocytes were stored at +4 °C instead of 18 °C.
(§4) For electrophysiological recordings, oocytes were placed on a nylon-grid in a bath of Ca^2+-containing NDE solution medium [96 mM NaCl, 5 mM HEPES-NaOH (pH 7.5), 2 mM KCl, 1 mM MgCl2, 1.8 mM CaCl2].

[2] = molecular target: T2, α5β3 GABAA receptors (Rattus norvegicus, UniProt P19969+P63079); assay: Two electrode voltage clamp in Xenopus laevis oocytes, α5β3; settings: read-out: efficacy, % of control current (GABA EC3-5 = 100%), α5β3
T2 construct: expressed in transfected cells; host or cells: Xenopus laevis oocytes, mRNA injected
Source text: as §1, §2, §3, §4

[3] = molecular target: T3, α3β3 GABAA receptors (Rattus norvegicus, UniProt P20236+P63079); assay: Two electrode voltage clamp in Xenopus laevis oocytes, α3β3
T3 construct: expressed in transfected cells; host or cells: Xenopus laevis oocytes, mRNA injected
Source text: as §1, §2, §3, §4

[4] = molecular target: T4, α2β3γ2 GABAA receptors (Rattus norvegicus, UniProt P23576+P63079); assay: Two electrode voltage clamp in Xenopus laevis oocytes, α2β3γ2
T4 construct: expressed in transfected cells; host or cells: Xenopus laevis oocytes, mRNA injected
Source text: as §1, §2, §3, §4

[5] = molecular target: T5, α1β3γ2 GABAA receptors (Rattus norvegicus, UniProt P62813+P63079); assay: Two electrode voltage clamp in Xenopus laevis oocytes, α1β3γ2
T5 construct: expressed in transfected cells; host or cells: Xenopus laevis oocytes, mRNA injected
Source text: as §1, §2, §3, §4

[6] = molecular target: T6, α5β3γ2 GABAA receptors (Rattus norvegicus, UniProt P19969+P63079); assay: Two electrode voltage clamp in Xenopus laevis oocytes, α5β3γ2
T6 construct: expressed in transfected cells; host or cells: Xenopus laevis oocytes, mRNA injected
Source text: as §1, §2, §3, §4

[7] = read-out: efficacy, % of control current (GABA EC3-5 = 100%), 1 nM
[8] = read-out: efficacy, % of control current (GABA EC3-5 = 100%), 10 nM
[9] = read-out: efficacy, % of control current (GABA EC3-5 = 100%), 300 nM
[10] = read-out: efficacy, % of control current (GABA EC3-5 = 100%), 1 µM
[11] = read-out: efficacy, % of control current (GABA EC3-5 = 100%), 10 µM
[12] = read-out: efficacy, % of control current (GABA EC3-5 = 100%), 30 µM

T3 sequence (P20236 29-493): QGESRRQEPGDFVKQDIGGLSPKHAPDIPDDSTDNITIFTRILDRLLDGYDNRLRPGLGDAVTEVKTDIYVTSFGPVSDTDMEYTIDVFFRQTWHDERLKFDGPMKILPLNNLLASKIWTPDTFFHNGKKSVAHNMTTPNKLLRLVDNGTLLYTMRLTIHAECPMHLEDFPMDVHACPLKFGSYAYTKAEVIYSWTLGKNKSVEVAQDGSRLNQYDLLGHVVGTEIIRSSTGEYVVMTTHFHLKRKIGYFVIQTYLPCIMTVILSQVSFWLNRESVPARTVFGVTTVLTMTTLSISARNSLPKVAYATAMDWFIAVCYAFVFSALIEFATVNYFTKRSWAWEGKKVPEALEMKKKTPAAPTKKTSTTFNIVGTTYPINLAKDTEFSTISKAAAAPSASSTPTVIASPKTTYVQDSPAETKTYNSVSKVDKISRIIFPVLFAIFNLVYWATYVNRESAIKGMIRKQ
T3 sequence (P63079 26-473): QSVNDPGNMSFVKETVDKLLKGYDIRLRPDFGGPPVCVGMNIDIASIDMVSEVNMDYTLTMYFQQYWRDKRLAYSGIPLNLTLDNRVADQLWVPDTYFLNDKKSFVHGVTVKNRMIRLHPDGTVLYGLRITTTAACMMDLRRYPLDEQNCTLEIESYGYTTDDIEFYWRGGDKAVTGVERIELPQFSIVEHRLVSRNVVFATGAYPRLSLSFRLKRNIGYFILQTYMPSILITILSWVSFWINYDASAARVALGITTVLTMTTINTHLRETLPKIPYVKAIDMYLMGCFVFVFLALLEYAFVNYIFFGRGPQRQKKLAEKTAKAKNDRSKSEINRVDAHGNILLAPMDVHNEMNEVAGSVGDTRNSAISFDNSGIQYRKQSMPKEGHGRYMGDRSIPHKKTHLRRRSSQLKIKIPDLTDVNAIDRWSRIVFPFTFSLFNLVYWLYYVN
T1 sequence (P20236 29-493): as the sequence (P20236 29-493) above
T1 sequence (P63079 26-473): as the sequence (P63079 26-473) above
T1 sequence (P18508 39-466 partner): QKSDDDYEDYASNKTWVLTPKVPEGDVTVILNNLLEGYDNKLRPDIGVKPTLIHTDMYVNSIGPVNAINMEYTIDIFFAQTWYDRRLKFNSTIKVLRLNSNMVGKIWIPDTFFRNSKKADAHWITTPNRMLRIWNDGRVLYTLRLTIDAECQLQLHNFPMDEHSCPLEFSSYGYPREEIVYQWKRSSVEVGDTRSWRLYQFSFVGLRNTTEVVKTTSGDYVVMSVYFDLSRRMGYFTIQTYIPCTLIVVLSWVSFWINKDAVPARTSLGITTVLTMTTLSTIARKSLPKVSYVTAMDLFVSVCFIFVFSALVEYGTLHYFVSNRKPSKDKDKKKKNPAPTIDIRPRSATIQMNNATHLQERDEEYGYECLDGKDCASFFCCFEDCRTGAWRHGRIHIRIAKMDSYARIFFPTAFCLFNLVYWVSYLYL
T2 sequence (P19969 32-464 limits assumed): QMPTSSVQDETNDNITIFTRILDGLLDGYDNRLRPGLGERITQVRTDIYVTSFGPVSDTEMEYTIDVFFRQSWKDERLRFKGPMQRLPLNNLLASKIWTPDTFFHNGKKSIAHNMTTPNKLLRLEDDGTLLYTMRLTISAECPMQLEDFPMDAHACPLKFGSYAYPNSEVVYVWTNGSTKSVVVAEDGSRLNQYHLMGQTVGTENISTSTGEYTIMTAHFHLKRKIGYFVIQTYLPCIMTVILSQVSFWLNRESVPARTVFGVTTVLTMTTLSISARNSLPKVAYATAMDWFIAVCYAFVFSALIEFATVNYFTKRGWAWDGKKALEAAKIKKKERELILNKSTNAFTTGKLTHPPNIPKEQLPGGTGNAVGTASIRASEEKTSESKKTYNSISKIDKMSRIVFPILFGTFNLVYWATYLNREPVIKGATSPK
T2 sequence (P63079 26-473): as the sequence (P63079 26-473) above
T6 sequence (P19969 32-464 limits assumed): as the sequence (P19969 32-464 limits assumed) above
T6 sequence (P63079 26-473): as the sequence (P63079 26-473) above
T6 sequence (P18508 39-466 partner): as the sequence (P18508 39-466 partner) above
T4 sequence (P23576 29-451): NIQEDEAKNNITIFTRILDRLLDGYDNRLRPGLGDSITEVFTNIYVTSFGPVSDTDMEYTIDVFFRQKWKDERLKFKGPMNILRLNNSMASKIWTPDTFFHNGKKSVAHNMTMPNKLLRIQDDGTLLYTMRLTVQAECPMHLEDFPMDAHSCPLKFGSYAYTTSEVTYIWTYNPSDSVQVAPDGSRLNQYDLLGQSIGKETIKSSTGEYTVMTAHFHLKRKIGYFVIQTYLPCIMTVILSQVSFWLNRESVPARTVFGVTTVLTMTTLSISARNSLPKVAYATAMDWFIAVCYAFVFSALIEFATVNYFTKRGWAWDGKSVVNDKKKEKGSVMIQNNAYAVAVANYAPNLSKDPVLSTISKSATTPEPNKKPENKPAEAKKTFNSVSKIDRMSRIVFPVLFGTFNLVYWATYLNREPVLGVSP
T4 sequence (P63079 26-473): as the sequence (P63079 26-473) above
T4 sequence (P18508 39-466 partner): as the sequence (P18508 39-466 partner) above
T5 sequence (P62813 28-455): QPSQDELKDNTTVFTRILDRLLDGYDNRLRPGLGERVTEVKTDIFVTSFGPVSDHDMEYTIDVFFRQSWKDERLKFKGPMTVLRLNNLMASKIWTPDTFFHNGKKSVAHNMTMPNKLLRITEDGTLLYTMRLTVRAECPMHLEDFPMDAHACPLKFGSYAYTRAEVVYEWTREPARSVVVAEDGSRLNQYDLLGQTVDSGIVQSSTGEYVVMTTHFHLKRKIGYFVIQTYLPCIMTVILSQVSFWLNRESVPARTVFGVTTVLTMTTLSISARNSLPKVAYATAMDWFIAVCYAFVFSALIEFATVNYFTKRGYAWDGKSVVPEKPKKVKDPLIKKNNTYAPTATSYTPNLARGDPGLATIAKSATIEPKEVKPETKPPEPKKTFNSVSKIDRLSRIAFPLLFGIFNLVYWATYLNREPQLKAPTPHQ
T5 sequence (P63079 26-473): as the sequence (P63079 26-473) above
T5 sequence (P18508 39-466 partner): as the sequence (P18508 39-466 partner) above

In the case of `Nc1ccc(-n2nc3c4cc(Cl)ccc4[nH]cc-3c2=O)cc1` [Compound 3, 8-Chloro-2-(4-aminophenyl)-2H-pyrazolo[4,3-c]quinolin-3(5H)-one], the “modulatory effects up to” value [1] is reported as ~ 200%, the EC50 ([1]; co-applied with GABA EC3-5) is reported as ~1000 nM and 1200 nM and the activity at 0.001 µM [1, 7] is reported as 100%. For the same compound, the activity at 0.01 µM [1, 8] was 101 ± 1%, the activity at 0.1 µM ([1]; read-out: efficacy, % of control current (GABA EC3-5 = 100%), 100 nM) was 108 ± 3.7% and the activity at 0.3 µM [1, 9] was 104 ± 4%. For the same compound, the activity at 1 µM [1, 10] was 133 ± 4%, the activity at 10 µM [1, 11] was 202 ± 23% and the activity at 30 µM [1, 12] was 195%. For the same compound, the activity at 0.1 µM ([2]; 100 nM) was 115 ± 8%, the activity at 1 µM ([2]; 1 µM) was 108 ± 4.7% and the activity at 10 µM ([2]; 10 µM) was 75.4 ± 6.4%. For the same compound, the EC50 [3] was 1900 nM, the activity at 0.001 µM ([3]; read-out: efficacy, % of control current (GABA EC3-5 = 100%), α3β3, 1 nM) was 103 ± 3.1% and the activity at 1 µM ([3]; read-out: efficacy, % of control current (GABA EC3-5 = 100%), α3β3, 1 µM) was 144 ± 6.3%. The EC50 [4] was greater than 10 µM, the activity at 0.01 µM ([4]; read-out: efficacy, % of control current (GABA EC3-5 = 100%), α2β3γ2, 10 nM) was 103 ± 3.2% and the activity at 0.1 µM ([4]; read-out: efficacy, % of control current (GABA EC3-5 = 100%), α2β3γ2, 100 nM) was 103 ± 3.2%. For the same compound, the activity at 1 µM ([4]; read-out: efficacy, % of control current (GABA EC3-5 = 100%), α2β3γ2, 1 µM) was 106 ± 2.2%, the activity at 10 µM ([4]; read-out: efficacy, % of control current (GABA EC3-5 = 100%), α2β3γ2, 10 µM) was 124 ± 4.1% and the EC50 ([5]; co-applied with GABA EC3-5, read-out: EC50) was roughly 1000 nM. It also gave an activity at 0.001 µM [5, 7] of 100.8 ± 0.6%, an activity at 0.01 µM [5, 8] of 103 ± 1.4% and an activity at 0.3 µM [5, 9] of 120 ± 4.3%. It also gave an activity at 1 µM [5, 10] of 145 ± 3.7%, an activity at 3 µM ([5]; read-out: efficacy, % of control current (GABA EC3-5 = 100%), 3 µM) of 197 ± 13.7% and an activity at 10 µM [5, 11] of 232 ± 7.5%. It also gave an activity at 30 µM [5, 12] of 137 ± 17.8%, an Emax ([5]; read-out: maximum efficacy / modulatory effects up to) of roughly 200% and an EC50 ([5]; read-out: pEC50 (converted)) of 1260 nM. The EC50 [6] was greater than 10 µM, the activity at 0.01 µM ([6]; read-out: efficacy, % of control current (GABA EC3-5 = 100%), α5β3γ2, 10 nM) was 89.6 ± 3.1% and the activity at 0.1 µM ([6]; read-out: efficacy, % of control current (GABA EC3-5 = 100%), α5β3γ2, 100 nM) was 83.6 ± 4.2%. It also gave an activity at 1 µM ([6]; read-out: efficacy, % of control current (GABA EC3-5 = 100%), α5β3γ2, 1 µM) of 90.6 ± 5.1% and an activity at 10 µM ([6]; read-out: efficacy, % of control current (GABA EC3-5 = 100%), α5β3γ2, 10 µM) of 52.8 ± 6.7%.
